Assay results taken from patent publication US8410161B2, “Thioxanthone ring system derivatives” (National Defense Medical Center, priority 2010, dated 2013).

Tests used:
UACC-62 = assay: NCI in vitro DTP human cell line screen, UACC-62; assay type: cell-based; conditions: Melanoma, 1.00E−5 Molar
Description: (§1) Then, a cell toxicity assay of the cancer lines made by National Cancer Institute will be discussed as follows. The cell toxicity assay is performed by choosing ten compounds (existing certification numbers) from the 59 compounds disclosed in the present invention first.

M14 = assay: NCI in vitro DTP human cell line screen, M14; assay type: cell-based; conditions: Melanoma, 1.00E−5 Molar
Description: as §1

HCT-116 = assay: NCI in vitro DTP human cell line screen, HCT-116; assay type: cell-based; conditions: Colon Cancer, 1.00E−5 Molar
Description: as §1

SF-539 = assay: NCI in vitro DTP human cell line screen, SF-539; assay type: cell-based; conditions: CNS Cancer, 1.00E−5 Molar
Description: as §1

SK-OV-3 = assay: NCI in vitro DTP human cell line screen, SK-OV-3; assay type: cell-based; conditions: Ovarian Cancer, 1.00E−5 Molar
Description: as §1

MALME-3M = assay: NCI in vitro DTP human cell line screen, MALME-3M; assay type: cell-based; conditions: Melanoma, 1.00E−5 Molar
Description: as §1

786-0 = assay: NCI in vitro DTP human cell line screen, 786-0; assay type: cell-based; conditions: Renal Cancer, 1.00E−5 Molar
Description: as §1

NCI/ADR-RES = assay: NCI in vitro DTP human cell line screen, NCI/ADR-RES; assay type: cell-based; conditions: Ovarian Cancer, 1.00E−5 Molar
Description: as §1

60 cancer lines = assay: NCI cell toxicity assay of 60 cancer lines, whole panel summary; assay type: cell-based, human; conditions: mean over all cell lines; 1.00E−5 Molar
Description: as §1

SR = assay: NCI in vitro DTP human cell line screen, SR; assay type: cell-based; conditions: Leukemia, 1.00E−5 Molar
Description: as §1

OVCAR-8 = assay: NCI in vitro DTP human cell line screen, OVCAR-8; assay type: cell-based; conditions: Ovarian Cancer, 1.00E−5 Molar
Description: as §1

SF-268 = assay: NCI in vitro DTP human cell line screen, SF-268; assay type: cell-based; conditions: CNS Cancer, 1.00E−5 Molar
Description: as §1

HS 578-T = assay: NCI in vitro DTP human cell line screen, HS 578-T; assay type: cell-based; conditions: Breast Cancer, 1.00E−5 Molar
Description: as §1

SNB-19 = assay: NCI in vitro DTP human cell line screen, SNB-19; assay type: cell-based; conditions: CNS Cancer, 1.00E−5 Molar
Description: as §1

COLO 205 = assay: NCI in vitro DTP human cell line screen, COLO 205; assay type: cell-based; conditions: Colon Cancer, 1.00E−5 Molar
Description: as §1

SN12C = assay: NCI in vitro DTP human cell line screen, SN12C; assay type: cell-based; conditions: Renal Cancer, 1.00E−5 Molar
Description: as §1

NCI-H322M = assay: NCI in vitro DTP human cell line screen, NCI-H322M; assay type: cell-based; conditions: Non-Small Cell Lung Cancer, 1.00E−5 Molar
Description: as §1

SNB-75 = assay: NCI in vitro DTP human cell line screen, SNB-75; assay type: cell-based; conditions: CNS Cancer, 1.00E−5 Molar
Description: as §1

LOX IMVI = assay: NCI in vitro DTP human cell line screen, LOX IMVI; assay type: cell-based; conditions: Melanoma, 1.00E−5 Molar
Description: as §1

SF-295 = assay: NCI in vitro DTP human cell line screen, SF-295; assay type: cell-based; conditions: CNS Cancer, 1.00E−5 Molar
Description: as §1

ACHN = assay: NCI in vitro DTP human cell line screen, ACHN; assay type: cell-based; conditions: Renal Cancer, 1.00E−5 Molar
Description: as §1

MDA-MB-468 = assay: NCI in vitro DTP human cell line screen, MDA-MB-468; assay type: cell-based; conditions: Breast Cancer, 1.00E−5 Molar
Description: as §1

EKVX = assay: NCI in vitro DTP human cell line screen, EKVX; assay type: cell-based; conditions: Non-Small Cell Lung Cancer, 1.00E−5 Molar
Description: as §1

MOLT-4 = assay: NCI in vitro DTP human cell line screen, MOLT-4; assay type: cell-based; conditions: Leukemia, 1.00E−5 Molar
Description: as §1

OVCAR-5 = assay: NCI in vitro DTP human cell line screen, OVCAR-5; assay type: cell-based; conditions: Ovarian Cancer, 1.00E−5 Molar
Description: as §1

KM12 = assay: NCI in vitro DTP human cell line screen, KM12; assay type: cell-based; conditions: Colon Cancer, 1.00E−5 Molar
Description: as §1

PC-3 = assay: NCI in vitro DTP human cell line screen, PC-3; assay type: cell-based; conditions: Prostate Cancer, 1.00E−5 Molar
Description: as §1

SK-MEL-2 = assay: NCI in vitro DTP human cell line screen, SK-MEL-2; assay type: cell-based; conditions: Melanoma, 1.00E−5 Molar
Description: as §1

HL-60(TB) = assay: NCI in vitro DTP human cell line screen, HL-60(TB); assay type: cell-based; conditions: Leukemia, 1.00E−5 Molar
Description: as §1

SW-620 = assay: NCI in vitro DTP human cell line screen, SW-620; assay type: cell-based; conditions: Colon Cancer, 1.00E−5 Molar
Description: as §1

[1] = MTT assay, HEL299 fibroblast; assay type: cell-based; conditions: human
Description: Please refer to FIG. 4C, various cell viabilities of the HEL299 cell lines can be obtained through the MTT assay while the compounds No. 1˜30 are used to treat HEL299 cell lines, wherein HEL299 cell lines are fibroblast.

RXF 393 = assay: NCI in vitro DTP human cell line screen, RXF 393; assay type: cell-based; conditions: Renal Cancer, 1.00E−5 Molar
Description: as §1

OVCAR-3 = assay: NCI in vitro DTP human cell line screen, OVCAR-3; assay type: cell-based; conditions: Ovarian Cancer, 1.00E−5 Molar
Description: as §1

HCT-15 = assay: NCI in vitro DTP human cell line screen, HCT-15; assay type: cell-based; conditions: Colon Cancer, 1.00E−5 Molar
Description: as §1

HT29 = assay: NCI in vitro DTP human cell line screen, HT29; assay type: cell-based; conditions: Colon Cancer, 1.00E−5 Molar
Description: as §1

UACC-257 = assay: NCI in vitro DTP human cell line screen, UACC-257; assay type: cell-based; conditions: Melanoma, 1.00E−5 Molar
Description: as §1

U251 = assay: NCI in vitro DTP human cell line screen, U251; assay type: cell-based; conditions: CNS Cancer, 1.00E−5 Molar
Description: as §1

SK-MEL-28 = assay: NCI in vitro DTP human cell line screen, SK-MEL-28; assay type: cell-based; conditions: Melanoma, 1.00E−5 Molar
Description: as §1

RPMI-8226 = assay: NCI in vitro DTP human cell line screen, RPMI-8226; assay type: cell-based; conditions: Leukemia, 1.00E−5 Molar
Description: as §1

BT-549 = assay: NCI in vitro DTP human cell line screen, BT-549; assay type: cell-based; conditions: Breast Cancer, 1.00E−5 Molar
Description: as §1

NCI-H522 = assay: NCI in vitro DTP human cell line screen, NCI-H522; assay type: cell-based; conditions: Non-Small Cell Lung Cancer, 1.00E−5 Molar
Description: as §1

MCF7 = assay: NCI in vitro DTP human cell line screen, MCF7; assay type: cell-based; conditions: Breast Cancer, 1.00E−5 Molar
Description: as §1

T-47D = assay: NCI in vitro DTP human cell line screen, T-47D; assay type: cell-based; conditions: Breast Cancer, 1.00E−5 Molar
Description: as §1

A3 cell lines = assay: MTT assay, A3 cell lines (lung cancer stem cell); assay type: cell-based
Description: Please to FIG. 4B, various cell viabilities of the A3 cell lines can be obtained through the MTT assay and illustrated in FIG. 4B while the compounds No. 1˜30 are used to treat A3 cell lines, wherein A3 cell lines are lung cancer stem cell.

SK-MEL-5 = assay: NCI in vitro DTP human cell line screen, SK-MEL-5; assay type: cell-based; conditions: Melanoma, 1.00E−5 Molar
Description: as §1

TK-10 = assay: NCI in vitro DTP human cell line screen, TK-10; assay type: cell-based; conditions: Renal Cancer, 1.00E−5 Molar
Description: as §1

CAKI-1 = assay: NCI in vitro DTP human cell line screen, CAKI-1; assay type: cell-based; conditions: Renal Cancer, 1.00E−5 Molar
Description: as §1

DU145 = assay: NCI in vitro DTP human cell line screen, DU145; assay type: cell-based; conditions: Prostate Cancer, 1.00E−5 Molar
Description: as §1

MDA-MB-435 = assay: NCI in vitro DTP human cell line screen, MDA-MB-435; assay type: cell-based; conditions: Melanoma, 1.00E−5 Molar
Description: as §1

NCI-H23 = assay: NCI in vitro DTP human cell line screen, NCI-H23; assay type: cell-based; conditions: Non-Small Cell Lung Cancer, 1.00E−5 Molar
Description: as §1

OVCAR-4 = assay: NCI in vitro DTP human cell line screen, OVCAR-4; assay type: cell-based; conditions: Ovarian Cancer, 1.00E−5 Molar
Description: as §1

HCC-2998 = assay: NCI in vitro DTP human cell line screen, HCC-2998; assay type: cell-based; conditions: Colon Cancer, 1.00E−5 Molar
Description: as §1

K562 = assay: NCI in vitro DTP human cell line screen, K562; assay type: cell-based; conditions: Leukemia, 1.00E−5 Molar
Description: as §1

NCI-H226 = assay: NCI in vitro DTP human cell line screen, NCI-H226; assay type: cell-based; conditions: Non-Small Cell Lung Cancer, 1.00E−5 Molar
Description: as §1

NCI-H460 = assay: NCI in vitro DTP human cell line screen, NCI-H460; assay type: cell-based; conditions: Non-Small Cell Lung Cancer, 1.00E−5 Molar
Description: as §1

IGROV1 = assay: NCI in vitro DTP human cell line screen, IGROV1; assay type: cell-based; conditions: Ovarian Cancer, 1.00E−5 Molar
Description: as §1

MDA-MB-231/ATCC = assay: NCI in vitro DTP human cell line screen, MDA-MB-231/ATCC; assay type: cell-based; conditions: Breast Cancer, 1.00E−5 Molar
Description: as §1

A control cell lines = assay: MTT assay, A control cell lines (lung cancer cell); assay type: cell-based
Description: Please refer to Table 1 and FIGS. 4A-4C. According to a MTT assay (Table 1), various cell viabilities of the A control cell lines can be obtained and illustrated in FIG. 4A while the compounds No. 2˜30 are used to treat A control cell lines, wherein A control cell lines are lung cancer cell.

UO-31 = assay: NCI in vitro DTP human cell line screen, UO-31; assay type: cell-based; conditions: Renal Cancer, 1.00E−5 Molar
Description: as §1

Cc1cc(C)cc(Sc2ccc3c(=O)c4ccccc4sc3c2Cl)c1 [No. 14, 4-Chloro-3-(3,5-dimethylphenylthio)-9H-thioxanthen-9-one]
Growth Percent (UACC-62): 96.19%
Growth Percent (M14): 107.60%
Growth Percent (HCT-116): 93.28%
Growth Percent (SF-539): 105.19%
Growth Percent (SK-OV-3): 103.14%
Growth Percent (MALME-3M): 102.39%
Growth Percent (786-0): 110.62%
Growth Percent (NCI/ADR-RES): 101.13%
Growth Percent, Mean (60 cancer lines): 101.73%
Growth Percent (SR): 86.99%
Growth Percent (OVCAR-8): 97.95%
Growth Percent (SF-268): 104.92%
Growth Percent (HS 578-T): 103.67%
Growth Percent (SNB-19): 108.53%
Growth Percent (COLO 205): 108.10%
Growth Percent (SN12C): 101.79%
Growth Percent (NCI-H322M): 116.93%
Growth Percent (SNB-75): 84.85%
Growth Percent (LOX IMVI): 96.06%
Growth Percent (SF-295): 116.45%
Growth Percent (ACHN): 98.35%
Growth Percent (MDA-MB-468): 110.63%
Growth Percent (EKVX): 96.66%
Growth Percent (MOLT-4): 99.59%
Growth Percent (OVCAR-5): 98.39%
Growth Percent (KM12): 109.61%
Growth Percent (PC-3): 97.92%
Growth Percent (SK-MEL-2): 100.30%
Growth Percent (HL-60(TB)): 99.82%
Growth Percent (SW-620): 104.39%
viability [1]: 104 ± 9.21%
Growth Percent (RXF 393): 114.27%
Growth Percent (OVCAR-3): 121.13%
Growth Percent (HCT-15): 97.09%
Growth Percent (HT29): 95.28%
Growth Percent (UACC-257): 89.26%
Growth Percent (U251): 95.50%
Growth Percent (SK-MEL-28): 117.96%
Growth Percent (RPMI-8226): 101.54%
Growth Percent (BT-549): 105.50%
Growth Percent (NCI-H522): 91.47%
Growth Percent (MCF7): 94.94%
Growth Percent (T-47D): 100.87%
cell viabilities of A3 cell lines (MTT assay) (A3 cell lines): 113 ± 0.50%
Growth Percent (SK-MEL-5): 104.23%
Growth Percent (TK-10): 103.30%
Growth Percent (CAKI-1): 90.10%
Growth Percent (DU145): 118.42%
Growth Percent (MDA-MB-435): 99.38%
Growth Percent (NCI-H23): 92.54%
Growth Percent (OVCAR-4): 101.64%
Growth Percent (HCC-2998): 101.80%
Growth Percent (K562): 100.94%
Growth Percent (NCI-H226): 97.38%
Growth Percent (NCI-H460): 105.72%
Growth Percent (IGROV1): 100.06%
Growth Percent (MDA-MB-231/ATCC): 106.25%
cell viabilities of A control cell lines (MTT assay) (A control cell lines): 112 ± 8.03%
Growth Percent (UO-31): 87.22%
